# According to ChEMBL document CHEMBL4382233, “Discovery of novel arylethenesulfonyl fluorides as potential candidates against methicillin-resistant of Staphylococcus aureus (MRSA) for overcoming multidrug resistance of bacterial infections” (2019):
# Active and inactive are the calls of the source. The calls are words filed in the database; no cut-off is given here.
# How the values were obtained:
# Staphylococcus aureus [1] = test: Antibacterial activity against methicillin-resistant Staphylococcus aureus after overnight incubation by micro broth dilution analysis; assay type: functional
# [2] = test system: Staphylococcus epidermidis; test: Antibacterial activity against methicillin-resistant Staphylococcus epidermidis after overnight incubation by micro broth dilution analysis; assay type: functional
# [3] = test system: Staphylococcus haemolyticus; test: Antibacterial activity against methicillin-resistant Staphylococcus haemolyticus after overnight incubation by micro broth dilution analysis; assay type: functional
# Staphylococcus aureus [4] = test: Antibacterial activity against methicillin-resistant Staphylococcus aureus assessed as zone of inhibition at 50 ug/mL after 24 hrs by agar disc diffusion method; assay type: functional; conditions: read-out: IZ
# [5] = test system: Staphylococcus epidermidis; test: Antibacterial activity against methicillin-resistant Staphylococcus epidermidis assessed as zone of inhibition at 20 ug/mL after 24 hrs by agar disc diffusion method; assay type: functional; conditions: read-out: IZ
# [6] = test system: Staphylococcus epidermidis; test: Antibacterial activity against methicillin-resistant Staphylococcus epidermidis assessed as zone of inhibition at 200 ng/mL after 24 hrs by agar disc diffusion method; assay type: functional; conditions: read-out: IZ
# [7] = test system: Staphylococcus epidermidis; test: Antibacterial activity against methicillin-resistant Staphylococcus epidermidis assessed as zone of inhibition at 400 ng/mL after 24 hrs by agar disc diffusion method; assay type: functional; conditions: read-out: IZ
# [8] = test system: Staphylococcus epidermidis; test: Antibacterial activity against methicillin-resistant Staphylococcus epidermidis assessed as zone of inhibition at 800 ng/mL after 24 hrs by agar disc diffusion method; assay type: functional; conditions: read-out: IZ
# [9] = test system: Staphylococcus haemolyticus; test: Antibacterial activity against methicillin-resistant Staphylococcus haemolyticus assessed as zone of inhibition at 50 ug/mL after 24 hrs by agar disc diffusion method; assay type: functional; conditions: read-out: IZ
# [10] = test system: Staphylococcus haemolyticus; test: Antibacterial activity against methicillin-resistant Staphylococcus haemolyticus assessed as zone of inhibition at 200 ng/mL after 24 hrs by agar disc diffusion method; assay type: functional; conditions: read-out: IZ
# [11] = test system: Staphylococcus haemolyticus; test: Antibacterial activity against methicillin-resistant Staphylococcus haemolyticus assessed as zone of inhibition at 400 ng/mL after 24 hrs by agar disc diffusion method; assay type: functional; conditions: read-out: IZ
# [12] = test system: Staphylococcus haemolyticus; test: Antibacterial activity against methicillin-resistant Staphylococcus haemolyticus assessed as zone of inhibition at 800 ng/mL after 24 hrs by agar disc diffusion method; assay type: functional; conditions: read-out: IZ
# Staphylococcus aureus [13] = test: Antibacterial activity against methicillin-resistant Staphylococcus aureus assessed as zone of inhibition at 200 ng/mL after 24 hrs by agar disc diffusion method; assay type: functional; conditions: read-out: IZ
# Staphylococcus aureus [14] = test: Antibacterial activity against methicillin-resistant Staphylococcus aureus assessed as zone of inhibition at 400 ng/mL after 24 hrs by agar disc diffusion method; assay type: functional; conditions: read-out: IZ
# Staphylococcus aureus [15] = test: Antibacterial activity against methicillin-resistant Staphylococcus aureus assessed as zone of inhibition at 800 ng/mL after 24 hrs by agar disc diffusion method; assay type: functional; conditions: read-out: IZ
# Staphylococcus aureus [16] = test: Induction of cellular content release in methicillin-resistant Staphylococcus aureus assessed as DNA content by measuring optical density at 260 nm at MIC after 240 mins by UV-visible spectrophotometric analysis; assay type: functional
# Staphylococcus aureus [17] = test: Antibiofilm activity against methicillin-resistant Staphylococcus aureus at MIC after 24 hrs by crystal violet staining-based UV-visible spectrophotometric analysis; assay type: functional, organism-based
# Staphylococcus aureus [18] = test: Antibiofilm activity against methicillin-resistant Staphylococcus aureus planktonic biofilm assessed as optical density at 492 nm at MIC after 24 hrs by crystal violet staining-based UV-visible spectrophotometric analysis; assay type: functional
# Staphylococcus aureus [19] = test: Antibiofilm activity against methicillin-resistant Staphylococcus aureus at 2 times MIC after 24 hrs by crystal violet staining-based UV-visible spectrophotometric analysis; assay type: functional, organism-based
Molecule,MIC99 (Staphylococcus aureus [1]) [µg/mL],MIC99 [2] [µg/mL],MIC99 [3] [µg/mL],zone of inhibition at 50 µg/mL (Staphylococcus aureus [4]) [mm],zone of inhibition at 20 µg/mL [5] [mm],zone of inhibition at 0.2 µg/mL [6] [mm],zone of inhibition at 0.4 µg/mL [7] [mm],zone of inhibition at 0.8 µg/mL [8] [mm],zone of inhibition at 50 µg/mL [9] [mm],zone of inhibition at 0.2 µg/mL [10] [mm],zone of inhibition at 0.4 µg/mL [11] [mm],zone of inhibition at 0.8 µg/mL [12] [mm],zone of inhibition at 0.2 µg/mL (Staphylococcus aureus [13]) [mm],zone of inhibition at 0.4 µg/mL (Staphylococcus aureus [14]) [mm],zone of inhibition at 0.8 µg/mL (Staphylococcus aureus [15]) [mm],OD (Staphylococcus aureus [16]),Activity (Staphylococcus aureus [17]),OD (Staphylococcus aureus [18]),Activity (Staphylococcus aureus [19])
CCOC(=O)/C=C/C=C/S(=O)(=O)F,40.3,47,56.1,4.1,8.2,3.3,4.1,3.1,7.5,0,3.2,5.1,–,–,–,–,–,–,–
Cc1ccc(/C=C/S(=O)(=O)F)cc1,0.836,44.2,40.1,10.3,6.4,–,–,–,6.3,–,–,–,4.1,5.2,7.1,1.48,Active,0.815,–
O=[N+]([O-])c1cccc(/C=C/S(=O)(=O)F)c1,0.843,0.831,61.6,9.1,7.4,5.2,6.2,7.2,6.4,–,–,–,5.2,6.1,9.7,1.45,–,–,Active
GENTAMICIN,–,–,–,–,–,–,–,–,–,–,–,–,–,–,–,–,–,0.808,Active
O=S(=O)(F)/C=C/c1cccc(O)c1,0.841,0.83,58.2,12.2,7.4,4.2,5.3,7.4,4.5,–,–,–,3.5,4.1,6.3,1.52,–,–,Active
CS(=O)(=O)c1ccc(/C=C/S(=O)(=O)F)cc1,15.1,50,43.2,10.3,4.2,–,–,–,–,–,–,–,4.1,5.2,7.1,1.45,Active,0.718,–
O=S(=O)(F)/C=C/c1cccc(I)c1,46,0.825,23.1,12.3,8.2,6.1,7.1,8.1,8.2,0,0,3.2,–,–,–,–,–,–,–
CC(C)S(=O)(=O)c1ccc(/C=C/S(=O)(=O)F)cc1,0.808,41.4,41.2,9,6.2,–,–,–,5.2,–,–,–,6.2,8.1,10.1,1.78,Active,0.6,–
O=S(=O)(F)/C=C/c1ccccc1Br,0.839,0.809,25.3,20.1,14.1,10.1,11.5,14.2,11.2,1.1,2.2,3.3,3.5,4.4,7.2,1.58,–,0.725,–
COc1cccc(/C=C/S(=O)(=O)F)c1,0.842,55.2,63.2,9.1,4.3,–,–,–,6.3,–,–,–,4.1,5.2,9.1,1.56,–,–,Active
